Measured values: patent US20250171437A1 (Agios Pharmaceuticals,Inc., priority 2022, published 2025)

Biological target: T1, human PAH with the R408W mutation (A375 R408W cells) (Homo sapiens, UniProt P00439, R408W)
T1 construct: expressed in transfected cells
T1 sequence (P00439 1-452 R408W): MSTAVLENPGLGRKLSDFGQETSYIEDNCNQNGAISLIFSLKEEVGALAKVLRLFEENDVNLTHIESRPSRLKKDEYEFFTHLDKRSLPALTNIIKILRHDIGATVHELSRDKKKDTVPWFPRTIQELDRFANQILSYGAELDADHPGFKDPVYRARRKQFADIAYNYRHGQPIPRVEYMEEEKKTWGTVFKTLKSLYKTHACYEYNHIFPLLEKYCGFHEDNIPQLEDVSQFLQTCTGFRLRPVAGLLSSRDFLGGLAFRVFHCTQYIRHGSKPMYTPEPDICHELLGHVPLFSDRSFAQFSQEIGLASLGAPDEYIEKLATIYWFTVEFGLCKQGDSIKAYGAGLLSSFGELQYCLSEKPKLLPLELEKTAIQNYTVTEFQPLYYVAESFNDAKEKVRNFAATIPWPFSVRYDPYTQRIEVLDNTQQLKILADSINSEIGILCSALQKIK
Test: Cell Based Phenylalanine Flux Assay
Settings: A375 R408W cells; 24 hrs with compound, then 20 μM sepiapterin and 800 μM 13C9,15N-Phenylalanine for 4 hours; 13C-Tyrosine by LC-MS; average where tested multiple times
Method in brief: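 AC50 is derived from LC-MS of 13C-tyrosine in the media after a 4 h pulse of 800 μM 13C9,15N-phenylalanine plus 20 μM sepiapterin. The A375 R408W PAH cells had received duplicate 10-point, 2-fold compound dilutions (0.5% DMSO) for 24 h beforehand.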

| SMILES | AC50 |
| --- | --- |
| O=C(CC1CC1)N1CCc2[nH]cnc2[C@@H]1c1nc2ccc(Br)cc2o1 [Example 4, (R)-1-(4-(6-bromobenzo[d]oxazol-2-yl)-6,7-dihydro-1H-imidazo[4,5-c]pyridin-5(4H)-yl)-2-cyclopropylethanone] | ≥ 5 µM |
| Cc1ccc2nc([C@H]3c4nc[nH]c4CCN3C(=O)c3nnc(-c4cnn(C)c4)o3)oc2c1 [Example 104, (R)-(5-(1-methyl-1H-pyrazol-4-yl)-1,3,4-oxadiazol-2-yl)(4-(6-methylbenzo[d]oxazol-2-yl)-6,7-dihydro-1H-imidazo[4,5-c]pyridin-5(4H)-yl)methanone] | ≥ 5 µM |
| Cn1cc(-c2ccc3c(C(=O)N4CCc5[nH]cnc5[C@H]4c4nc5cc(F)ccc5o4)cnn3c2)cn1 [Example 71, (S)-(4-(5-fluorobenzo[d]oxazol-2-yl)-6,7-dihydro-1H-imidazo[4,5-c]pyridin-5(4H)-yl)(6-(1-methyl-1H-pyrazol-4-yl)pyrazolo[1,5-a]pyridin-3-yl)methanone] | 0.5 to 1 µM |
| Cc1ccc2oc([C@@H]3c4nc[nH]c4CCN3C(=O)c3nnc(-c4ccccn4)o3)nc2c1 [Example 97, (S)-(4-(5-methylbenzo[d]oxazol-2-yl)-6,7-dihydro-1H-imidazo[4,5-c]pyridin-5(4H)-yl)(5-(pyridin-2-yl)-1,3,4-oxadiazol-2-yl)methanone] | ≤ 0.5 µM |
| O=C(CC1CC1)N1CCc2[nH]cnc2[C@H]1c1nc2cc(F)ccc2o1 [Example 37, (S)-2-cyclopropyl-1-(4-(5-fluorobenzo[d]oxazol-2-yl)-6,7-dihydro-1H-imidazo[4,5-c]pyridin-5(4H)-yl)ethanone] | 1 to 5 µM |

The remaining lines, values ahead:

| AC50 | SMILES |
| --- | --- |
| 1 to 5 µM | Cn1ccc(-c2nc(C(F)F)c(C(=O)N3CCc4[nH]cnc4[C@@H]3c3nc4ccccc4o3)o2)n1 [Example 762, (R)-(4-(benzo[d]oxazol-2-yl)-6,7-dihydro-1H-imidazo[4,5-c]pyridin-5(4H)-yl)(4-(difluoromethyl)-2-(1-methyl-1H-pyrazol-3-yl)oxazol-5-yl)methanone] |
| 0.5 to 1 µM | CC(C)(O)c1nc(C(F)F)c(C(=O)N2CCc3[nH]cnc3[C@@H]2c2nc3cc(OC(F)(F)F)ccc3o2)o1 [Example 352, (R)-(4-(difluoromethyl)-2-(2-hydroxypropan-2-yl)oxazol-5-yl)(4-(5-(trifluoromethoxy)benzo[d]oxazol-2-yl)-6,7-dihydro-1H-imidazo[4,5-c]pyridin-5(4H)-yl)methanone] |
| 0.5 to 1 µM | C[C@H](O)c1nc(C(F)F)c(C(=O)N2CCc3[nH]cnc3[C@H]2c2nc3cc(F)ccc3o2)o1 [Example 157, (4-(difluoromethyl)-2-((S)-1-hydroxyethyl)oxazol-5-yl)((S)-4-(5-fluorobenzo[d]oxazol-2-yl)-6,7-dihydro-1H-imidazo[4,5-c]pyridin-5(4H)-yl)methanone] |
| 1 to 5 µM | COc1cccc2nc([C@@H]3c4nc[nH]c4CCN3C(=O)c3nc(C)nn3C)oc12 [Example 909, (S)-(1,3-dimethyl-1H-1,2,4-triazol-5-yl)(4-(7-methoxybenzo[d]oxazol-2-yl)-6,7-dihydro-1H-imidazo[4,5-c]pyridin-5(4H)-yl)methanone] |
| ≤ 0.5 µM | Cn1cnc(-c2nc(C(F)F)c(C(=O)N3CCc4[nH]cnc4[C@H]3c3nc4cccc(F)c4o3)o2)c1 [Example 892, (S)-(4-(difluoromethyl)-2-(1-methyl-1H-imidazol-4-yl)oxazol-5-yl)(4-(7-fluorobenzo[d]oxazol-2-yl)-1,4,6,7-tetrahydro-5H-imidazo[4,5-c]pyridin-5-yl)methanone] |
| ≤ 0.5 µM | O=C(c1ocnc1C(F)F)N1CCc2[nH]cnc2[C@@H]1c1nc2c(OC(F)(F)F)cccc2o1 [Example 535, (R)-(4-(difluoromethyl)oxazol-5-yl)(4-(4-(trifluoromethoxy)benzo[d]oxazol-2-yl)-6,7-dihydro-1H-imidazo[4,5-c]pyridin-5(4H)-yl)methanone] |
| 0.5 to 1 µM | Cc1ccc2oc([C@H]3c4nc[nH]c4CCN3C(=O)c3ccnn3C(F)F)nc2c1 [Example 314, (R)-(1-(difluoromethyl)-1H-pyrazol-5-yl)(4-(5-methylbenzo[d]oxazol-2-yl)-6,7-dihydro-1H-imidazo[4,5-c]pyridin-5(4H)-yl)methanone] |
| ≤ 0.5 µM | Cc1cccc2nc([C@@H]3c4nc[nH]c4CCN3C(=O)c3nnc(-c4ncccc4F)o3)oc12 [Example 858, (S)-(5-(3-fluoropyridin-2-yl)-1,3,4-oxadiazol-2-yl)(4-(7-methylbenzo[d]oxazol-2-yl)-6,7-dihydro-1H-imidazo[4,5-c]pyridin-5(4H)-yl)methanone] |
| 0.5 to 1 µM | O=C(c1ocnc1C(F)F)N1CCc2[nH]cnc2[C@H]1c1nc2cc(F)c(F)cc2o1 [Example 295, (S)-(4-(5,6-difluorobenzo[d]oxazol-2-yl)-6,7-dihydro-1H-imidazo[4,5-c]pyridin-5(4H)-yl)(4-(difluoromethyl)oxazol-5-yl)methanone] |
| 0.5 to 1 µM | Cc1ccc2nc([C@@H]3c4nc[nH]c4CCN3C(=O)c3nnc(-c4ncccc4F)o3)oc2c1 [Example 679, (S)-(5-(3-fluoropyridin-2-yl)-1,3,4-oxadiazol-2-yl)(4-(6-methylbenzo[d]oxazol-2-yl)-6,7-dihydro-1H-imidazo[4,5-c]pyridin-5(4H)-yl)methanone] |
| ≤ 0.5 µM | O=C(c1ocnc1C(F)F)N1CCc2[nH]cnc2[C@H]1c1nc2ccc(F)cc2o1 [Example 163, (S)-(4-(difluoromethyl)oxazol-5-yl)(4-(6-fluorobenzo[d]oxazol-2-yl)-6,7-dihydro-1H-imidazo[4,5-c]pyridin-5(4H)-yl)methanone] |
| 1 to 5 µM | O=C(c1ccnn1C(F)(F)F)N1CCc2[nH]cnc2[C@@H]1c1nc2c(F)cccc2o1 [Example 294, (R)-(4-(4-fluorobenzo[d]oxazol-2-yl)-6,7-dihydro-1H-imidazo[4,5-c]pyridin-5(4H)-yl)(1-(trifluoromethyl)-1H-pyrazol-5-yl)methanone] |
| 0.5 to 1 µM | O=C(c1ccnn1CC(F)F)N1CCc2[nH]cnc2[C@@H]1c1nc2ccccc2o1 [Example 836, (R)-(4-(benzo[d]oxazol-2-yl)-6,7-dihydro-1H-imidazo[4,5-c]pyridin-5(4H)-yl)(1-(2,2-difluoroethyl)-1H-pyrazol-5-yl)methanone] |
| 0.5 to 1 µM | O=C(c1oc(-c2cccnc2)nc1C(F)F)N1CCc2[nH]cnc2[C@@H]1c1nc2cc(F)ccc2o1 [Example 419, (R)-(4-(difluoromethyl)-2-(pyridin-3-yl)oxazol-5-yl)(4-(5-fluorobenzo[d]oxazol-2-yl)-6,7-dihydro-1H-imidazo[4,5-c]pyridin-5(4H)-yl)methanone] |
| ≤ 0.5 µM | CC(C)(O)c1nc(C(F)F)c(C(=O)N2CCc3[nH]cnc3[C@H]2c2nc3cccc(C(F)(F)F)c3o2)o1 [Example 453, (S)-(4-(difluoromethyl)-2-(2-hydroxypropan-2-yl)oxazol-5-yl)(4-(7-(trifluoromethyl)benzo[d]oxazol-2-yl)-6,7-dihydro-1H-imidazo[4,5-c]pyridin-5(4H)-yl)methanone] |
| 0.5 to 1 µM | O=C(c1cnn(CC(F)(F)F)c1C(F)F)N1CCc2[nH]cnc2[C@H]1c1nc2cc(F)ccc2o1 [Example 183, (S)-(5-(difluoromethyl)-1-(2,2,2-trifluoroethyl)-1H-pyrazol-4-yl)(4-(5-fluorobenzo[d]oxazol-2-yl)-6,7-dihydro-1H-imidazo[4,5-c]pyridin-5(4H)-yl)methanone] |
| ≤ 0.5 µM | Cn1ccc(-c2nnc(C(=O)N3CCc4[nH]cnc4[C@H]3c3nc4c(F)ccc(F)c4o3)o2)n1 [Example 813] |
| 0.5 to 1 µM | Cc1ccc2oc([C@H]3c4nc[nH]c4CCN3C(=O)c3oc(C(C)(C)O)nc3Br)nc2c1 [Example 408, (R)-(4-bromo-2-(2-hydroxypropan-2-yl)oxazol-5-yl)(4-(5-methylbenzo[d]oxazol-2-yl)-6,7-dihydro-1H-imidazo[4,5-c]pyridin-5(4H)-yl)methanone] |

Same assay, conditions: A375 cells expressing R408W PAH; 24 hrs with compound, then 20 μM sepiapterin and 800 μM 13C9,15N-Phenylalanine for 4 hours; 13C-Tyrosine by LC-MS; average where tested multiple times

| AC50 | SMILES |
| --- | --- |
| 1 to 5 µM | CC(C)(O)c1ncc(C(=O)N2CCc3[nH]cnc3C2c2nc3ccccc3o2)o1 (stereo not shown) |
| 1 to 5 µM | O=C(CCc1nccs1)N1CCc2[nH]cnc2C1c1nc2cc(F)ccc2o1 (stereo not shown) |
| 1 to 5 µM | CC(C)(O)c1nc(C(F)F)c(C(=O)N2CCCc3[nH]cnc3C2c2nc3cc(F)ccc3o2)o1 (stereo not shown) |
| 1 to 5 µM | CC(C)(O)C1CCN(c2ccc3c(C(=O)N4CCc5[nH]cnc5C4c4nc5cc(F)ccc5o4)cnn3c2)CC1 (stereo not shown) |
| 1 to 5 µM | O=C(c1nnc(N2CCOCC2)o1)N1CCc2[nH]cnc2C1c1nc2cc(F)ccc2o1 (stereo not shown) |
| ≥ 5 µM | CC(C)(O)c1nc(Br)c(C(=O)N2CCc3[nH]cnc3C2c2nc3cc(F)ccc3o2)s1 (stereo not shown) |
| 1 to 5 µM | Cn1cncc1-c1nnc(C(=O)N2CCc3[nH]cnc3C2c2nc3cccc(C(F)(F)F)c3o2)o1 (stereo not shown) |

| SMILES | AC50 |
| --- | --- |
| CC(C)(O)c1cc(C(=O)N2CCc3[nH]cnc3C2c2nc3ccc(F)cc3o2)on1 (single isomer, unassigned) [4R enantiomer of 2-{5-[4-(6-fluoro-1,3-benzoxazol-2-yl)-1H,4] | ≥ 5 µM |
